The record followed here is patent US10246421B2, “Indazolyl- and indolyl-benzamide derivatives” (ESANEX, INC., priority 2014, dated 2019).

Common to all, as to type: cell-based
The test system of one assay is PC-3. Description: Cell proliferation assay, PC-3. The following applies: Homo sapiens. Here is the method: (§1) A panel of cancer cell lines may be obtained from the DCTP Tumor Repository, National Cancer Institute (Frederick, Md.) or ATCC (Rockville, Md.). Cell cultures are maintained in Hyclone RPMI 1640 medium (Logan, Utah) supplemented with 10% fetal bovine serum and 20 mM HEPES buffer, final pH 7.2, at 37° C. with a 5% CO2 atmosphere. Cultures are maintained at sub-confluent densities. Human umbilical vein endothelial cells (HUVEC) are purchased from Clonetics, a division of Cambrex (Walkersville, Md.). Cultures are established from cryopreserved stocks using Clonetics EGM-2 medium supplemented with 20 mM HEPES, final pH 7.2, at 37° C. with a 5% CO2 atmosphere.
(§2) For proliferation assays, cells are seeded with the appropriate medium into 96 well plates at 1,000-2,500 cells per well, depending on the cell line, and are incubated overnight. The following day, test compound, DMSO solution (negative control), or Actinomycin D (positive control) is added to the appropriate wells as 10× concentrated stocks prepared in phosphate buffered saline. The cell plates are then incubated for an additional 2-5 days, depending on the cell line, to allow proliferation to occur. To measure cell density, 50 μL of WST-1 solution (Roche Applied Science, IN) diluted 1:5 in phosphate buffered saline is added to each well, and the cells incubated for an additional 1-5 hrs, again depending on the cell line. Optical density is determined for each well at […] using a Tecan GeniosPro plate reader (RTP, NC). The percentage of cell growth is determined by comparing the cell growth in the presence of test compounds to the cells treated with DMSO vehicle (control, 100% growth) and cells treated with Actinomycin D (10 μM, 0% growth).
(§3) Immediately after the WST-1 determination, the medium is removed from the cell lines, and the plates stored at −80° C. Using these assay plates, relative amounts of DNA in each well are determined using the Cyquant DNA assay kit from […] (Eugene, Oreg.) following the manufacturer's directions. Results for each compound treatment are compared to DMSO vehicle control (100%) and 10 μM Actinomycin D treated cells (0%).

A further assay concerns pS6. Description: A375 imaging assay, pS6 inhibition. The following applies: Homo sapiens, A-375, 24 hours treatment. Here is the method: (§4) Cells of multiple human tumor lines were plated in Packard Viewplate-96, incubated overnight, and then treated with test compound for 24 hours. Following treatment, cell monolayers were fixed using standard methods and treated with antibodies targeted to the indicated Hsp90 clients. Primary antibodies were detected using a fluoroscene isothiocyanate (FITC)-conjugated anti-mouse antibody and a tetramethyl rhodamine isothiocyanate (TRITC)-conjugated anti-rabbit antibody. Deoxyribonucleic acid was stained and images were obtained using the compartmental analysis algorithm on a Cellomics Array scan 4.5 according to manufacturer instructions. Average intensities for vehicle control and treated wells were compared with test compound-treated cells to determine the 50% efficacious concentration (EC50) values. This methodology was augmented with an alternative method of immune-detection for p-Akt levels. Luminex detection of p-Akt used to directly assay the client effect, Akt, as well as the competency of the signaling cascade, as indicated by phosphorylation of S6 kinase.

The next assay deals with HSP70. The assay is described as follows: A375 imaging assay, HSP70 induction. The following applies: Homo sapiens, A-375, 24 hours treatment. Here is the method:
as §4

For another assay, the system named is K562. The assay is described as follows: Cell proliferation assay, K562. The following applies: Homo sapiens. Here is the method: as §1, §2, §3
A further assay concerns pErk. Description: AU565 imaging assay, pErk inhibition. The following applies: Homo sapiens, 24 hours treatment. Here is the method:
as §4

The next assay has as its system NCI-H460. The assay is described as follows: Cell proliferation assay, NCI-H460. The following applies: Homo sapiens. Here is the method:
as §1, §2, §3

In the next assay the test system is A375. Description: Cell proliferation assay, A375. The following applies: Homo sapiens, A-375. Here is the method: as §1, §2, §3
Another assay relates to Her2. Description: AU565 imaging assay, Her2 degradation. The following applies: Homo sapiens, 24 hours treatment. Here is the method: as §4

A value given as a limit tells only on which side of the number the result lay.

On to `Cc1nn(-c2cc(F)c(C(N)=O)c(N[C@H]3CCC[C@@H]3O)c2)c2c1CCC(C)(C)C2` [EX-007, 2-fluoro-6-((1S,2S)-2-hydroxycyclopentylamino)-4-(3,6,6-trimethyl-4,5,6,7-tetrahydro-1H-indazol-1-yl)benzamide], for which the IC50 came to 74.1 ± 70.6 nM in the assay on PC-3, 92.3 ± 32.7 nM in the assay with K562, 41.4 ± 18.4 nM in the assay on NCI-H460 (NCI-H460 (Table 2B)) and 1 ± 0.466 nM in the assay with A375. The concentration for a half-maximal effect (EC50) with pS6 stood at 4.3 nM; in the assay on HSP70 it was 0.092 nM; with pErk it was 1.5 nM; in the assay with Her2, 0.366 nM.
Consider `Cc1nn(-c2cc(F)c(C(N)=O)c(N[C@H]3CC[C@H](O)CC3)c2)c2c1C=CC(C)(C)C2` [EX-008, 2-fluoro-6-((1r,4r)-4-hydroxycyclohexylamino)-4-(3,6,6-trimethyl-6,7-dihydro-1H-indazol-1-yl)benzamide], for which the IC50 with PC-3 was determined as 40.5 ± 7.9 nM; in the assay on K562 it was 250 ± 77.5 nM; with NCI-H460 (NCI-H46 (Table 2A)), 142 ± 59 nM; in the assay on A375, 69.7 ± 9.3 nM. Besides, the EC50 in the assay with pS6 is 59.1 nM; in the assay with HSP70, 54 nM; with pErk, 112 nM; in the assay on Her2, 51 nM.
Consider `Cc1nn(-c2cc(F)c(C(N)=O)c(N[C@H]3CC[C@H](O)CC3)c2)c2c1CCC(C)(C)C2` [EX-009, 2-fluoro-6-((1r,4r)-4-hydroxycyclohexylamino)-4-(3,6,6-trimethyl-4,5,6,7-tetrahydro-1H-indazol-1-yl)benzamide], for which the IC50 in the assay with PC-3 came to 44.1 ± 6.1 nM; in the assay with K562 it was 277 ± 81.8 nM; with NCI-H460 (NCI-H46 (Table 2A)), 167 ± 22.4 nM; in the assay with A375, 76 ± 43.1 nM. In addition, the EC50 in the assay on pS6 was 28.5 nM; in the assay on HSP70 it was 37.2 nM; in the assay on pErk, 101 nM; in the assay with Her2, 35.8 nM.
Regarding `Cc1nn(-c2cc(F)c(C(N)=O)c(NC3CCCCC3)c2)c2c1C=CC(C)(C)C2` [EX-010, 2-(cyclohexylamino)-6-fluoro-4-(3,6,6-trimethyl-6,7-dihydro-1H-indazol-1-yl)benzamide], the IC50 with PC-3 is 3310 nM; in the assay on K562, 48000 nM; in the assay with NCI-H460 (NCI-H46 (Table 2A)), 5080 nM; in the assay with A375, 2260 nM.
In the same order, the values of `Cc1nn(-c2cc(F)c(C(N)=O)c(NC3CCCCC3)c2)c2c1CCC(C)(C)C2` [EX-011, 2-(cyclohexylamino)-6-fluoro-4-(3,6,6-trimethyl-4,5,6,7-tetrahydro-1H-indazol-1-yl)benzamide] are 5120 nM, 4280 nM, 8590 nM and 9520 nM.
Regarding `Cc1nn(-c2cc(F)c(C(N)=O)c(NC3CCOC3)c2)c2c1C=CC(C)(C)C2` (stereo not drawn) [EX-012, 2-fluoro-6-(tetrahydrofuran-3-ylamino)-4-(3,6,6-trimethyl-6,7-dihydro-1H-indazol-1-yl)benzamide], the IC50 in the assay on PC-3 was under 80 nM; in the assay with K562, 172 ± 72.3 nM; with NCI-H460 (NCI-H460 (Table 2B)), 1380 ± 425 nM; with A375, 242 ± 192 nM. Besides, the EC50 was found to be 73.8 nM with pS6, 45.4 nM in the assay on HSP70, 322 nM with pErk and 205 nM with Her2.
Regarding `Cc1nn(-c2cc(F)c(C(N)=O)c(N[C@H]3CCOC3)c2)c2c1CCC(C)(C)C2` [EX-013, (S)-2-fluoro-6-(tetrahydrofuran-3-ylamino)-4-(3,6,6-trimethyl-4,5,6,7-tetrahydro-1H-indazol-1-yl)benzamide], the IC50 in the assay with PC-3 stood at 160 ± 81.4 nM; with K562, 242 ± 118 nM; in the assay with NCI-H460 (NCI-H460 (Table 2B)), 3170 ± 791 nM; in the assay with A375 it was 176 ± 145 nM. Further, the EC50 amounted to 156 nM in the assay on pS6, 77.7 nM in the assay with HSP70, 360 nM in the assay on pErk and 329 nM in the assay with Her2.
With `Cc1nn(-c2cc(F)c(C(N)=O)c(N[C@@H]3CCCC[C@H]3O)c2)c2c1C=CC(C)(C)C2` [EX-014, 2-fluoro-6-((1R,2R)-2-hydroxycyclohexylamino)-4-(3,6,6-trimethyl-6,7-dihydro-1H-indazol-1-yl)benzamide], the 50% inhibitory concentration (IC50) with PC-3 worked out at 364 ± 7.8 nM; in the assay with K562, 363 ± 57.4 nM; in the assay on NCI-H460 (NCI-H460 (Table 2B)), 1370 ± 325 nM; in the assay on A375, 630 ± 106 nM. Besides, the EC50 is 115 nM in the assay with pS6, 464 nM with HSP70, 457 nM with pErk and 329 nM in the assay with Her2.
Take `Cc1nn(-c2cc(F)c(C(N)=O)c(N[C@H]3CCCC[C@@H]3O)c2)c2c1CCC(C)(C)C2` [EX-015, 2-fluoro-6-((1S,2S)-2-hydroxycyclohexylamino)-4-(3,6,6-trimethyl-4,5,6,7-tetrahydro-1H-indazol-1-yl)benzamide]: the IC50 worked out at 344 ± 10.2 nM with PC-3, 359 ± 42.4 nM with K562, 1910 ± 513 nM with NCI-H460 (NCI-H460 (Table 2B)) and 448 ± 50.2 nM in the assay on A375. In addition, the EC50 in the assay on pS6 is 241 nM; in the assay on HSP70 it was 346 nM; with pErk, 820 nM; with Her2, 667 nM.
As to `Cc1nn(-c2cc(F)c(C(N)=O)c(N[C@H]3CC[C@H](O)CC3)c2)c2c1C(C)CC(C)(C)C2` (stereo partly drawn) [EX-016, 2-fluoro-6-((1R,4R)-4-hydroxycyclohexylamino)-4-(3,4,6,6-tetramethyl-4,5,6,7-tetrahydro-1H-indazol-1-yl)benzamide], the IC50 came out at 6490 nM with PC-3, 6340 nM with K562, 6550 nM with NCI-H460 (NCI-H46 (Table 2A)) and 10200 nM with A375.
Consider `CC1=CC(C)(C)Cc2c1c(C)nn2-c1cc(F)c(C(N)=O)c(N[C@H]2CC[C@H](O)CC2)c1` [EX-017, 2-fluoro-6-((1R,4R)-4-hydroxycyclohexylamino)-4-(3,4,6,6-tetramethyl-6,7-dihydro-1H-indazol-1-yl)benzamide], for which the IC50 stood at 1550 nM in the assay with PC-3, 1690 nM with K562, 2130 nM in the assay on NCI-H460 (NCI-H46 (Table 2A)) and 2580 nM in the assay on A375.

As usually defined, the IC50 is the concentration needed to halve the response being measured. Lower therefore signals inhibition by little substance. As usually defined, the EC50 is the midpoint of the concentration-response curve. A higher EC50 goes with a less potent agent.
